Data as given in US8993544B2, “Carbamoylphosphonates as inhibitors and uses thereof” (priority 2009, dated 2015).
Like-named read-outs stand apart in the source and are kept apart here.

Key:
human MMP-13 = target: T1, human MMP-13 (Homo sapiens, UniProt P45452); assay: Determination of MMP inhibitory potency, MMP-13; format: biochemical
T1 construct: purchased R&D Systems, Minneapolis
Description: (§1) Recombinant enzymes, human MMP-1, MMP-2, MMP-3, MMP-8, MMP-9, MMP-12, MMP-13 and TACE (R&D Systems, Minneapolis) were incubated at four different concentrations with the relevant colorimetric or fluorescent peptide substrates (R&D Systems, Minneapolis) for 3 h. The tested compounds were added at four to six different concentrations and the inhibitory potencies expressed in a colorimetric change, was measured by an ELISA or fluorimeter.

MMP-2 [1] = target: T2, MMP-2 (Homo sapiens, UniProt P08253); assay: Determination of MMP inhibitory potency, MMP-2; format: biochemical; design: purchased R&D Systems, Minneapolis
T2 sequence (P08253 110-660): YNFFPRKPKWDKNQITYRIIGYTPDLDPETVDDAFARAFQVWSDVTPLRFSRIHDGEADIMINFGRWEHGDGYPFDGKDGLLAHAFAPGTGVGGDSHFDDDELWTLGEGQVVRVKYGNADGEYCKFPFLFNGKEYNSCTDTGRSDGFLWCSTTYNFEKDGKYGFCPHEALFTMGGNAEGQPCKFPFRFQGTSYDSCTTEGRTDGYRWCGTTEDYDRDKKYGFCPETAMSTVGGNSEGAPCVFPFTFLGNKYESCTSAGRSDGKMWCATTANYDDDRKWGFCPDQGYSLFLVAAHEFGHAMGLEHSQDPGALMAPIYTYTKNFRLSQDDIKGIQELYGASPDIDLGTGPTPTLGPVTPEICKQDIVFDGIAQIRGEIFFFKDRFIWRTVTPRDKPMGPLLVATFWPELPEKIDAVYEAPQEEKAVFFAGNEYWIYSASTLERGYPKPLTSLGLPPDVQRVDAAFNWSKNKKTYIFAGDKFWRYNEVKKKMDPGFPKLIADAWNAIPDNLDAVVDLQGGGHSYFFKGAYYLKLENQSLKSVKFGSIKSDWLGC
Description: as §1

human MMP-8 = target: T3, human MMP-8 (Homo sapiens, UniProt P22894); assay: Determination of MMP inhibitory potency, MMP-8; format: biochemical
T3 construct: purchased R&D Systems, Minneapolis
Description: as §1

TACE = target: T4, TACE (Homo sapiens, UniProt P78536); assay: Determination of inhibitory potency, TACE; format: biochemical
T4 construct: purchased R&D Systems, Minneapolis
Description: as §1

human MMP-12 = target: T5, human MMP-12 (Homo sapiens, UniProt P39900); assay: Determination of MMP inhibitory potency, MMP-12; format: biochemical
T5 construct: purchased R&D Systems, Minneapolis
Description: as §1

human MMP-9 = target: T6, human MMP-9 (Homo sapiens, UniProt P14780); assay: Determination of MMP inhibitory potency, MMP-9; format: biochemical
T6 construct: purchased R&D Systems, Minneapolis
Description: as §1

human MMP-3 = target: T7, human MMP-3 (Homo sapiens, UniProt P08254); assay: Determination of MMP inhibitory potency, MMP-3; format: biochemical
T7 construct: purchased R&D Systems, Minneapolis
Description: as §1

MMP and/or ADAM enzyme = assay: Duration of inhibitory effect on the enzymes inhibited; format: biochemical, human
Description: Previously, it has been established that cis-2-aminocyclohexycarbamoyl phosphonic acid (cis-ACCP), listed for the purpose of comparison in Tables 2 and 3 as “control”, was an effective nontoxic, in vivo active antimetastatic compound. […] In the study leading to the subject invention, it was determined that the inhibitory effect could be, and in fact was prolonged by substituting carbamoylphosphonic functionality with aromatic ring functionality as in the compounds of the invention. […]
as §1

MMP-2 [2] = target: T2, MMP-2; assay: Time dependent inhibition of MMP-2 (period of inhibition); format: biochemical
tumor invasion = assay: In vitro model of tumor invasion (Boyden chamber, reconstituted basement membrane); format: cell-based; details: read-out: % Invasion-Inhibition by 50 μM drug
Description: The compound was also evaluated in an in vivo experimental model of metastasis using B16F10 tumor cells in C57B1 mice. […] The assay was carried out in a Boyden chamber with a reconstituted basement membrane (Matrigal).

B16F10 tumor cells = assay: Murine melanoma model of experimental metastasis; format: in vivo, C57B1 mice; details: for % reduction in lung metastases relative to control: daily for three weeks, B16F10 cells i.v.
Description: Experimental metastasis was studied in the murine melanoma model. In this model, B16F10 tumor cells (50 k) were injected into the tail vein of C57B1 6 week old female mice. After 21 days, the metastases formed on the lungs of the mice were counted after appropriate fixation. […] One group received the inhibitor intraperitoneally and the other group orally, dissolved in PBS. Mice were monitored for toxic symptoms at alternate days.

[3] = mouse, in vivo
Description: The initial dose was set to 50 mg/kg as in the previous studies.
One group received the inhibitor intraperitoneally and the other group orally, dissolved in PBS. Mice were monitored for toxic symptoms at alternate days.

T6 sequence (P14780 94-707): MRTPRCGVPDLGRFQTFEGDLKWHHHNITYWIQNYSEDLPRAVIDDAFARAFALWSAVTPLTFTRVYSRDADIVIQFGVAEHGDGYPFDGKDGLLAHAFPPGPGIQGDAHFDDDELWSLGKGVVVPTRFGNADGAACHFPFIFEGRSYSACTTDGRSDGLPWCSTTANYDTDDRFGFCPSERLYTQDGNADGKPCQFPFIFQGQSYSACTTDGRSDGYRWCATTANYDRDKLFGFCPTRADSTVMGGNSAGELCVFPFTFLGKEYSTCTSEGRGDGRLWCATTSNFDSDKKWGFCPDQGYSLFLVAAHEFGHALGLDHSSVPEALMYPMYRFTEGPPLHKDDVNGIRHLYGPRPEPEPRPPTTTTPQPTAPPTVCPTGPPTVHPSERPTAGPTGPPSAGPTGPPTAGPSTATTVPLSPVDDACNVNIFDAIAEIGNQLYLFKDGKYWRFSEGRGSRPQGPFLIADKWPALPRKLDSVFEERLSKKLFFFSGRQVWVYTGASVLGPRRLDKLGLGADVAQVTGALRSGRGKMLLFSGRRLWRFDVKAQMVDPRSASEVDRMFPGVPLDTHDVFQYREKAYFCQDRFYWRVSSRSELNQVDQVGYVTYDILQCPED
T3 sequence (P22894 101-467): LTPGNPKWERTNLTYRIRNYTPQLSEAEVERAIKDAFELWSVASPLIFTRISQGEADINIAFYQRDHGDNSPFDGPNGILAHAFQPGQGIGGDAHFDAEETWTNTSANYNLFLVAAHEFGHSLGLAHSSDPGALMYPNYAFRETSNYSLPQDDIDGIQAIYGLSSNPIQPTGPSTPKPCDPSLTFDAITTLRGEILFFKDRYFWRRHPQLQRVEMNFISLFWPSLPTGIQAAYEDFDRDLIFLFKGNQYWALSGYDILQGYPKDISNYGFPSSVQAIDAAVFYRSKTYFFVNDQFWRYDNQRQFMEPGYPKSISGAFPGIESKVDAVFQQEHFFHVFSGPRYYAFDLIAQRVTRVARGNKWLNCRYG
T5 sequence (P39900 106-470): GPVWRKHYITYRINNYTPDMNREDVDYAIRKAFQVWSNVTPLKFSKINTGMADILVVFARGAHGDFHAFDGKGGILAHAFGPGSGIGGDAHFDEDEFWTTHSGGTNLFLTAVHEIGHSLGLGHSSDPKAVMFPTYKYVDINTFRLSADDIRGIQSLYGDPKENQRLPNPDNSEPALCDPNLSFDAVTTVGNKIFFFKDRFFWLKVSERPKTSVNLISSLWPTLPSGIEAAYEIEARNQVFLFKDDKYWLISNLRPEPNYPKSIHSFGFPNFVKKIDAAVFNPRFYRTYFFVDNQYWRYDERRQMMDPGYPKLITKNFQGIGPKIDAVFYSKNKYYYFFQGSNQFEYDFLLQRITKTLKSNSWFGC
T7 sequence (P08254 100-477): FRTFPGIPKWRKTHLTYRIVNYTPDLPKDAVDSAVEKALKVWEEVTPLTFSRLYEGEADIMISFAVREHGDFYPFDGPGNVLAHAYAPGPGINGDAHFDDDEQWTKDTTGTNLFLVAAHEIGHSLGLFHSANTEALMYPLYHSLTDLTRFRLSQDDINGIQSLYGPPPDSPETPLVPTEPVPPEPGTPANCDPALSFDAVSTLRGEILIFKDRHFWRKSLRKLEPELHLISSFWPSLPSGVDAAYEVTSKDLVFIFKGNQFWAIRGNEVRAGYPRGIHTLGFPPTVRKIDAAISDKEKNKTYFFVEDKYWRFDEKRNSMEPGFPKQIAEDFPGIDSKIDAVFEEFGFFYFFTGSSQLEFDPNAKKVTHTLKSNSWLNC
T4 sequence (P78536 215-824): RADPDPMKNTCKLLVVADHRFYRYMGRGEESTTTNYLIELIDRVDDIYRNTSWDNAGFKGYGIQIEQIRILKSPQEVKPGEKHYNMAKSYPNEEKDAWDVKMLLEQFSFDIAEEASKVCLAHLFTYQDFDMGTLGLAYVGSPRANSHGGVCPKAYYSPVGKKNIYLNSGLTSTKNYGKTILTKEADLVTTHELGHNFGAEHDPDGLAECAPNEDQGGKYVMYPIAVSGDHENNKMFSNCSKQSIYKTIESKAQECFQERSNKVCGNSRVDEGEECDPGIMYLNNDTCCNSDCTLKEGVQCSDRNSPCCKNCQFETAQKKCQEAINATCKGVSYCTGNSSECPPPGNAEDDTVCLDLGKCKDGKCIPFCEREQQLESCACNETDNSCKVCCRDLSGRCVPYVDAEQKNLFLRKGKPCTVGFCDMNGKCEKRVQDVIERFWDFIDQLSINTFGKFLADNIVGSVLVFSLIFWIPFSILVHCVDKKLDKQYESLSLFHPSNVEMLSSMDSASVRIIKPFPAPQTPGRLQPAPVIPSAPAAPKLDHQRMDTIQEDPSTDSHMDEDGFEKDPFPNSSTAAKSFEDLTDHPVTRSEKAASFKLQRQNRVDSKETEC

| SMILES | IC50 (human MMP-13; read-out: IC50 (μM) on MMP-13) [µM] | IC50 (MMP-2 [1]; read-out: IC50 (μM) on MMP-2) [µM] | IC50 (human MMP-8; read-out: IC50 (μM) on MMP-8) [µM] | IC50 (TACE; read-out: IC50 (μM) on TACE) [µM] | IC50 (human MMP-12; read-out: IC50 (μM) on MMP-12) [µM] | IC50 (human MMP-9; read-out: IC50 (μM) on MMP-9) [µM] | IC50 (human MMP-3; read-out: IC50 (μM) on MMP-3) [µM] | Duration of inhibitory effect (MMP and/or ADAM enzyme) [min] | inhibition at 50 µM (tumor invasion) [%] | other results |
| --- | --- | --- | --- | --- | --- | --- | --- | --- | --- | --- |
| NC(CNC(=O)P(=O)(O)O)CNS(=O)(=O)c1ccc(Oc2ccccc2)cc1 (racemic) [Compound 8, 2-amino-1-(4-phenoxybenzenesulfonamido)-3-[phosphonoformamido]propane] | > 100 | 15 | 12 | 12 | 15 | 12 | > 100 | >180 | – | duration of affinity to all the enzymes inhibited (MMP and/or ADAM enzyme): > 3 h |
| N[C@H]1CCCC[C@H]1NC(=O)P(=O)(O)O (relative stereo) [YK-162, cis-2-aminocyclohexylcarbamoyl phosphonic acid, reference compound] | – | – | – | – | – | – | – | <30 | 15 | IC50 (human MMP-13): > 100 µM; IC50 (MMP-2 [1]): 4 µM; IC50 (human MMP-8): > 100 µM; period of MMP-2 inhibition (MMP-2 [2]; MMP-2): about 30 minutes; IC50 (TACE): > 100 µM; IC50 (human MMP-12): > 100 µM; IC50 (human MMP-9): 20 µM; IC50 (human MMP-3): > 100 µM |
| O=C(NCCNS(=O)(=O)c1ccc(Oc2ccccc2)cc1)P(=O)(O)O [Compound 1, 1-[4-phenoxybenzenesulfonamido]-2-[phosphonoformamido]ethane] | 55 | 15 | > 100 | 6 | 60 | > 100 | > 100 | >180 | 70 | activity against MMP-8 (human MMP-8): reduced or no activity; period as active inhibitor (time dependent inhibition, FIG. 1) (MMP-2 [2]): at least 3 hours; activity against TACE (TACE): moderate activity; activity against MMP-9 (human MMP-9): reduced or no activity; activity against MMP-3 (human MMP-3): reduced or no activity; inhibition in metastasis formation (number of metastatic foci in the lung) (B16F10 tumor cells; B16F10 tumor cells in C57B1 mice): > 80% |
| O=C(NCCCNS(=O)(=O)c1ccc(Oc2ccccc2)cc1)P(=O)(O)O [Compound 2, 1-[4-phenoxybenzenesulfonamido]-3-[phosphonoformamido]propane] | 25 | 10 | > 100 | > 100 | > 100 | > 100 | 35 | >180 | 49 | melting point: 165 to 168 °C |
| O=C(NCCCCNS(=O)(=O)c1ccc(Oc2ccccc2)cc1)P(=O)(O)O [Compound 3, 1-[4-phenoxybenzenesulfonamido]-4-[phosphonoformamido]butane] | 25 | 7 | > 100 | > 100 | > 100 | > 100 | > 100 | >180 | 60 | melting point: 143 to 145 °C |
| O=C(NCCCCCNS(=O)(=O)c1ccc(Oc2ccccc2)cc1)P(=O)(O)O [Compound 4] | 60 | 5 | > 100 | > 100 | 80 | > 100 | > 100 | – | 62 | inhibition of metastasis formation (B16F10 tumor cells; 50 mg/kg): > 80%; % reduction in lung metastases relative to control (B16F10 tumor cells; Intraperitoneal, 25 mg/kg): 76%; % reduction in lung metastases relative to control (B16F10 tumor cells; Intraperitoneal, 50 mg/kg): 90%; % reduction in lung metastases relative to control (B16F10 tumor cells; Per-oral, 50 mg/kg): 80%; % reduction in lung metastases relative to control (B16F10 tumor cells; Per-oral, 150 mg/kg): 86% |
| O=C(NCCCCCCNS(=O)(=O)c1ccc(Oc2ccccc2)cc1)P(=O)(O)O [Compound 5, 1-[4-Phenoxybenzenesulfonamido]-6-[phosphonoformamido]hexane] | 80 | 5 | > 100 | 20 | > 100 | > 100 | > 100 | – | 77 | toxic effects in mice [3]: without any toxic effects; toxicity in mice (text, FIG. 5) [3]: toxic; Toxicity in mice (Table 4) ([3]; ip, 50 mg/kg): Toxic; % reduction in lung metastases relative to control (B16F10 tumor cells; Intraperitoneal, 25 mg/kg): 90%; % reduction in lung metastases relative to control (B16F10 tumor cells; Per-oral, 50 mg/kg): 50%; % reduction in lung metastases relative to control (B16F10 tumor cells; Per-oral, 150 mg/kg): 86% |
| O=C(NCCCCCCCNS(=O)(=O)c1ccc(Oc2ccccc2)cc1)P(=O)(O)O [Compound 6] | > 100 | > 100 | > 100 | 22 | > 100 | > 100 | > 100 | >180 | – | – |
| O=C(NCCCCCCCCNS(=O)(=O)c1ccc(Oc2ccccc2)cc1)P(=O)(O)O [Compound 7] | > 100 | > 100 | > 100 | 17 | > 100 | > 100 | > 100 | >180 | – | – |
| N[C@H](CNC(=O)P(=O)(O)O)CNS(=O)(=O)c1ccc(Oc2ccccc2)cc1 [Compound 8R, (R)-N-[2-amino-3-(4-phenoxybenzenesulfonamido)propyl]carbamoylphosphonic acid] | > 100 | 20 | 15 | > 100 | 12 | > 100 | > 100 | >180 | > 100 | – |
| N[C@@H](CNC(=O)P(=O)(O)O)CNS(=O)(=O)c1ccc(Oc2ccccc2)cc1 [Compound 8S, (S)-N-[2-amino-3-(4-phenoxybenzenesulfonamido)propyl]carbamoylphosphonic acid] | > 100 | 15 | > 100 | > 100 | > 100 | > 100 | – | >180 | > 100 | – |
| O=C(NCCNCCNS(=O)(=O)c1ccc(Oc2ccccc2)cc1)P(=O)(O)O [Compound 10, N-{2-[2-(4-Phenoxybenzenesulfonylamino)-ethylamino]-ethyl}-carbamoylphosphonic acid] | – | 20 | > 100 | > 100 | – | > 100 | > 100 | >180 | – | melting point: 224 to 225 °C |
